In patent US20260234099A1, “Endocannabinoid ligands and related analogs” (Northeastern University, priority 2023, published 2026):
Where two headings read alike, the source gives them in different places.

Columns and labels:
CB2 receptor (hCB2) = CB2 receptor (hCB2) (Homo sapiens, UniProt P34972); test: cAMP assay (inhibition of FSK stimulated cAMP), CB2; format: cell-based; details: class symbols
Description: FIG. 2A is a graph providing data of the % inhibition of FSK stimulated cAMP for compound 6.1.1 for hCB2.
Further functional characterization of some of the disclosed compounds tested initially for “binding affinity” or for GTPγ-S binding was performed by using the cyclic adenosine monophosphate (cAMP) assay. Key compounds initially characterized functionally using the GTPγ-S assay were also doubly tested using the cAMP assay to unambiguously confirm their functional profiles. The functional potency of the compounds tested using the cyclase assay is also represented by the EC50 (cAMP) value and similarly the lower the EC50 (cAMP) value the higher the potency of the compound for the receptor. A detailed description of the methods used to test compounds using the cAMP assay is given in Yingpeng, et al. J. Med. Chem. (2018) 61, 8639-8657 the content of which is hereby incorporated by reference. The EC50 values (potency of a test compound) of the functional assays may or may not be accompanied by the E(max) value in tables 1-5 (efficacy of the test compound). E(max)/efficacy is the maximum GTP stimulation or cAMP inhibition levels and is presented as the percentage of maximum response evoked by a standard CB1/CB2 full agonist (e.g., CP-55,940) for reference see the paper cited above. If a test compound has an efficacy close to 100% of the standard full agonist, then the test compound is also classified as full agonist.

CB2 receptor = CB2 receptor (Homo sapiens, UniProt P34972); test: CB2 receptor binding affinity (Ki); design: CB2 receptor Ki; CB2 receptor Ki (PMSF); other: with PMSF
Description: (§1) Some disclosed compounds were tested for CB1 and CB2 receptor binding affinity (Tables 1, 2, 3, 4, 5). As used herein “binding affinity” is represented by the Ki value. The Ki value is the affinity constant and describes the affinity of the compound for the receptor. […] A detailed description of the methods used to test “binding affinity” of compounds is given in Makriyannis, et al., US 2007/0135388 the content of which is hereby incorporated by reference.

CB1 receptor = CB1 receptor (Rattus norvegicus, UniProt P20272); test: CB1 receptor binding affinity (Ki); details: for binding affinity for CB1 receptor compared to endogenous AEA: vs AEA, Table 5
Chain of CB1 receptor (P20272 whole entry): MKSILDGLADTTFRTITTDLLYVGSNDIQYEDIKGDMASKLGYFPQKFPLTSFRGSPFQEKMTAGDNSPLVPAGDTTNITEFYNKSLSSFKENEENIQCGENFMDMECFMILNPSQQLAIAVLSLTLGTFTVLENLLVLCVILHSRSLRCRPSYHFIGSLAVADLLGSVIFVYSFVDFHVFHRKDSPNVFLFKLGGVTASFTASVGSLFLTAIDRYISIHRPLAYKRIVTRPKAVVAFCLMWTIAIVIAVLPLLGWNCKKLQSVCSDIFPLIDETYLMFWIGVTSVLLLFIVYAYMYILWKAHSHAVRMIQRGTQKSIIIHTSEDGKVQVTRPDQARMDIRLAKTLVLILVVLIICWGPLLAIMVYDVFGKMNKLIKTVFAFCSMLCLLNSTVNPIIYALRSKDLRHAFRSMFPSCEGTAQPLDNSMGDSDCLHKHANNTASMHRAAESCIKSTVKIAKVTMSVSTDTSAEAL
Description: as §1

CB1 receptor (rCB1) = CB1 receptor (rCB1) (Rattus norvegicus, UniProt P20272); test: cAMP assay (inhibition of FSK stimulated cAMP), CB1; format: cell-based; details: for functional profile at CB1 (cAMP): full or partial agonist; for Emax: percentage of maximum response of standard full agonist (e.g., CP-55,940)
Chain of CB1 receptor (rCB1) (P20272 whole entry): as above
Description: Further functional characterization of some of the disclosed compounds tested initially for “binding affinity” or for GTPγ-S binding was performed by using the cyclic adenosine monophosphate (cAMP) assay. […] A detailed description of the methods used to test compounds using the cAMP assay is given in Yingpeng, et al. J. Med. Chem. (2018) 61, 8639-8657 the content of which is hereby incorporated by reference. The EC50 values (potency of a test compound) of the functional assays may or may not be accompanied by the E(max) value in tables 1-5 (efficacy of the test compound). E(max)/efficacy is the maximum GTP stimulation or cAMP inhibition levels and is presented as the percentage of maximum response evoked by a standard CB1/CB2 full agonist (e.g., CP-55,940) for reference see the paper cited above.

[1] = without PMSF, read-out: CB1 receptor affinity Ki
[2] = with PMSF, read-out: CB1 Receptor Ki with PMSF

Chain of CB2 receptor (hCB2) (P34972 whole entry): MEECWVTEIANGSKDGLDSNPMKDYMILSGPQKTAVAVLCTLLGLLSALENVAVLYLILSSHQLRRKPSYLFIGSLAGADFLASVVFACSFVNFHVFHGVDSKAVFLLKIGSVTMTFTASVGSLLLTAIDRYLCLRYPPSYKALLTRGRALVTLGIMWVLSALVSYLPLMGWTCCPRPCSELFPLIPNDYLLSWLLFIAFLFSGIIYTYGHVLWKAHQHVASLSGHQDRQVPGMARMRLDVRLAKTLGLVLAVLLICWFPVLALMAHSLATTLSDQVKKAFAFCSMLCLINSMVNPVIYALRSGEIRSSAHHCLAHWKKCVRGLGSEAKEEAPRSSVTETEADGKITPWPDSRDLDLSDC

CCCCC/C=C\C/C=C\C/C=C\C/C=C\C1CC1C(=O)OC(CO)CO (stereo not shown) [Compound 5.2.2b]
EC50 (CB2 receptor (hCB2)): 10 to 200 nM

CCCCC/C=C\C/C=C\C/C=C\C/C=C\C1CC1C(=O)NCCO (stereo not shown) [Compound 4.2.2a, 2-((1Z,4Z,7Z,10Z)-Hexadeca-1,4,7,10-tetraen-1-yl)-N-(2-hydroxyethyl)cyclopropane-1-carboxamide]
Ki (CB2 receptor; read-out: CB2 receptor Ki): > 1000 nM
Ki (CB1 receptor; [1]): > 1000 nM

CCCCC/C=C\C/C=C\C/C=C\C/C=C\C1(CC(=O)NCCO)CCC1 [Compound 4.2.2d]
Ki (CB1 receptor; [2]): 200 to 1000 nM

CCCCC/C=C\C/C=C\C/C=C\C/C=C\C1(CC(=O)OC(CO)CO)CCC1 [Compound 5.2.2d]
EC50 (CB2 receptor (hCB2)): > 1000 nM
EC50 (CB1 receptor (rCB1); class symbols): 200 to 1000 nM

CCCCC1(/C=C\C/C=C\C/C=C\C/C=C\CCCC(=O)N[C@H](C)CO)CCCC1 [Compound 4.4.3, (5Z,8Z,11Z,14Z)-15-(1-Butylcyclopentyl)-N—((R)-1-hydroxypropan-2-yl)pentadeca-5,8,11,14-tetraenamide]
Ki (CB2 receptor; read-out: CB2 receptor Ki (PMSF), with PMSF): > 1000 nM
Ki (CB1 receptor; [2]): 200 to 1000 nM

CCCCC/C=C\C/C=C\C/C=C\C/C=C\C1CCC(C(=O)NCCO)CC1 (stereo not shown) [Compound 4.2.2f]
Ki (CB2 receptor; read-out: CB2 receptor Ki): 200 to 1000 nM
Ki (CB1 receptor; [2]): 200 to 1000 nM

CCCCC/C=C\[C@H](C)/C=C\C/C=C\C/C=C\CCCC(=O)OC(CO)CO [Compound 5.4.3c, 1,3-Dihydroxypropan-2-yl (S,5Z,8Z,11Z,14Z)-13-methylicosa-5,8,11,14-tetraenoate]
EC50 (CB2 receptor (hCB2)): 0.01 to 10 nM
functional profile at CB1 (cAMP) (CB1 receptor (rCB1)): full agonist
EC50 (CB1 receptor (rCB1); numeric): 10.3 nM
Emax (CB1 receptor (rCB1)): 99%

CCCCC/C=C\[C@H](C)/C=C\C/C=C\Cc1ccccc1CCCC(=O)OC(CO)CO [Compound 5.9.3]
EC50 (CB2 receptor (hCB2)): > 1000 nM
EC50 (CB1 receptor (rCB1); class symbols): > 1000 nM

O=C(OC(CO)CO)C1CC1/C=C\C/C=C\C/C=C\C/C=C\CCCCCO[N+](=O)[O-] (stereo not shown) [Compound 5.8.3b, 1,3-Dihydroxypropan-2-yl-2-((1Z,4Z,7Z,10Z)-16-(nitrooxy)hexadeca-1,4,7,10-tetraen-1-yl)cyclopropane-1-carboxylate]
EC50 (CB1 receptor (rCB1); class symbols): 10 to 200 nM

CCCCC/C=C\C/C=C\C/C=C\Cc1ccccc1CCCC(=O)NCCO [Compound 4.3.4, N-(2-Hydroxyethyl)-4-(2-((2Z,5Z,8Z)-tetradeca-2,5,8-trien-1-yl)phenyl)butanamide]
Ki (CB2 receptor; read-out: CB2 receptor Ki): 10 to 200 nM
binding affinity for CB1 receptor compared to endogenous AEA (CB1 receptor): substantially higher binding affinities
Ki (CB1 receptor; [2]): 10 to 200 nM
Ki (CB1 receptor; [1]): 10 to 200 nM

CCCCC/C=C\C/C=C\C/C=C\C/C=C\C1CC1C(=O)OC(CO)CO (stereo not shown) [Compound 5.2.2a, 1,3-Dihydroxypropan-2-yl 2-((1Z,4Z,7Z,10Z)-hexadeca-1,4,7,10-tetraen-1-yl)cyclopropane-1-carboxylate]
EC50 (CB1 receptor (rCB1); class symbols): 10 to 200 nM

CCCCC/C=C\[C@@H](C)/C=C\C/C=C\C/C=C\CCCC(=O)OC(CO)CO [Compound 5.4.3d, 1,3-Dihydroxypropan-2-yl (R,5Z,8Z,11Z,14Z)-13-methylicosa-5,8,11,14-tetraenoate]
EC50 (CB2 receptor (hCB2)): 0.01 to 10 nM
functional profile at CB1 (cAMP) (CB1 receptor (rCB1)): full agonist
EC50 (CB1 receptor (rCB1); numeric): 4.1 nM
Emax (CB1 receptor (rCB1)): 95%

C[C@H](/C=C\C/C=C\C/C=C\C1CC1C(=O)OC(CO)CO)/C=C\CCCCC(F)(F)F (single isomer, unassigned) [Compound 5.11.4]
EC50 (CB2 receptor (hCB2)): 10 to 200 nM
EC50 (CB1 receptor (rCB1); class symbols): 10 to 200 nM

CCCCC/C=C\[C@H](C)/C=C\C/C=C\C/C=C\CCCOC(=O)C(C)(CO)CO [Compound 6.2.2, (S,4Z,7Z,10Z,13Z)-12-Methylnonadeca-4,7,10,13-tetraen-1-yl-3-hydroxy-2(hydroxymethyl)-2-methylpropanoate]
EC50 (CB2 receptor (hCB2)): 10 to 200 nM
EC50 (CB1 receptor (rCB1); class symbols): 10 to 200 nM

CCCCC/C=C\C/C=C\C/C=C\C/C=C\C1CC(C(=O)NCCO)C1 (stereo not shown) [Compound 4.2.2c]
Ki (CB2 receptor; read-out: CB2 receptor Ki): 200 to 1000 nM
Ki (CB1 receptor; [2]): 200 to 1000 nM

C[C@H](/C=C\C/C=C\C/C=C\C1CC1C(=O)OC(CO)CO)/C=C\CCCCC(F)(F)F (single isomer, unassigned) [Compound 5.11.8]
EC50 (CB2 receptor (hCB2)): 10 to 200 nM
EC50 (CB1 receptor (rCB1); class symbols): 0.01 to 10 nM

CCCCC/C=C\C/C=C\C/C=C\C/C=C\C1CCC(C(=O)OC(CO)CO)CC1 (stereo not shown) [Compound 5.2.2f]
EC50 (CB2 receptor (hCB2)): > 1000 nM
EC50 (CB1 receptor (rCB1); class symbols): > 1000 nM

CCCCC/C=C\C/C=C\C/C=C\C/C=C\C1CC[C@@H](C(=O)NCCO)C1 (stereo partly shown) [Compound 4.2.2e]
Ki (CB2 receptor; read-out: CB2 receptor Ki): 200 to 1000 nM
Ki (CB1 receptor; [2]): 200 to 1000 nM

C[C@H](/C=C\C/C=C\C/C=C\[C@@H]1C[C@H]1C(=O)OC(CO)CO)/C=C\CCCCC(F)(F)F [Compound 5.12.1]
EC50 (CB2 receptor (hCB2)): 10 to 200 nM
EC50 (CB1 receptor (rCB1); class symbols): 10 to 200 nM

C[C@H](/C=C\C/C=C\C/C=C\[C@H]1C[C@H]1C(=O)OC(CO)CO)/C=C\CCCCC(F)(F)F [Compound 5.12.3, 1,3-dihydroxypropan-2-yl (1R,2R)-2-((S,1Z,4Z,7Z,10Z)-16,16,16-trifluoro-9-methylhexadeca-1,4,7,10-tetraen-1-yl)cyclopropane-1-carboxylate]
EC50 (CB2 receptor (hCB2)): 10 to 200 nM
EC50 (CB1 receptor (rCB1); class symbols): 0.01 to 10 nM

CCCCC/C=C\C/C=C\C/C=C\C/C=C\C1CC(C(=O)OC(CO)CO)C1 (stereo not shown) [Compound 5.2.2c]
EC50 (CB2 receptor (hCB2)): > 1000 nM
EC50 (CB1 receptor (rCB1); class symbols): > 1000 nM

C[C@H](/C=C\C/C=C\C/C=C\C1CC1C(=O)OC(CO)CO)/C=C\CCCCCO[N+](=O)[O-] (stereo partly drawn) [Compound 5.7.3b, 1,3-dihydroxypropan-2-yl-2-((S,1Z,4Z,7Z,10Z)-9-methyl-16-(nitrooxy)hexadeca-1,4,7,10-tetraen-1-yl)cyclopropane-1-carboxylate]
EC50 (CB1 receptor (rCB1); class symbols): 0.01 to 10 nM

C[C@H](/C=C\C/C=C\C/C=C\[C@@H]1C[C@@H]1C(=O)OC(CO)CO)/C=C\CCCCC(F)(F)F [Compound 5.12.4, 1,3-dihydroxypropan-2-yl (1S,2S)-2-((S,1Z,4Z,7Z,10Z)-16,16,16-trifluoro-9-methylhexadeca-1,4,7,10-tetraen-1-yl)cyclopropane-1-carboxylate]
EC50 (CB2 receptor (hCB2)): 10 to 200 nM
EC50 (CB1 receptor (rCB1); class symbols): 10 to 200 nM

CCCCCc1ccccc1C/C=C\C/C=C\C/C=C\CCCC(=O)N[C@H](C)CO [Compound 4.6.3, (5Z,8Z,11Z)—N—((R)-1-hydroxypropan-2-yl)-13-(2-pentylphenyl)trideca-5,8,11-trienamide]
Ki (CB2 receptor; read-out: CB2 receptor Ki): 10 to 200 nM
Ki (CB1 receptor; [2]): 10 to 200 nM
Ki (CB1 receptor; [1]): 10 to 200 nM

C[C@H](/C=C\C/C=C\C/C=C\CCCC(=O)N[C@H](C)CO)/C=C\CCCCCO [Compound 4.7.2]
Ki (CB2 receptor; read-out: CB2 receptor Ki): 10 to 200 nM
Ki (CB1 receptor; [1]): 10 to 200 nM

CCCCC/C=C\C/C=C\C/C=C\Cc1ccccc1CCCC(=O)N[C@H](C)CO [Compound 4.3.5, N—((R)-1-Hydroxypropan-2-yl)-4-(2-((2Z,5Z,8Z)-tetradeca-2,5,8-trien-1-yl)phenyl)butanamide]
Ki (CB2 receptor; read-out: CB2 receptor Ki): 10 to 200 nM
CB1 over CB2 preference (CB1 receptor; CB1 vs CB2, Tables 1 and 5): bind to and stimulate preferentially the CB1 receptors
binding affinity for CB1 receptor compared to endogenous AEA (CB1 receptor): substantially higher binding affinities
Ki (CB1 receptor; [2]): 10 to 200 nM
Ki (CB1 receptor; [1]): 0.01 to 10 nM

C[C@H](/C=C\C/C=C\C/C=C\[C@H]1C[C@@H]1C(=O)OC(CO)CO)/C=C\CCCCC(F)(F)F [Compound 5.12.2]
EC50 (CB2 receptor (hCB2)): 10 to 200 nM
EC50 (CB1 receptor (rCB1); class symbols): > 1000 nM

C[C@H](/C=C\C/C=C\C/C=C\CCCC(=O)NC(CO)CO)/C=C\CCCCCO[N+](=O)[O-] [Compound 5.1.6b]
EC50 (CB2 receptor (hCB2)): 10 to 200 nM
EC50 (CB1 receptor (rCB1); class symbols): 0.01 to 10 nM

C[C@H](/C=C\C/C=C\C/C=C\CCCC(=O)NC(CO)CO)/C=C\CCCCCOC1CCCCO1 (stereo partly shown) [Compound 5.1.6c]
EC50 (CB2 receptor (hCB2)): > 1000 nM
EC50 (CB1 receptor (rCB1); class symbols): > 1000 nM

N#CCCCCC/C=C\C/C=C\C/C=C\C/C=C\C1CC1C(=O)OC(CO)CO (stereo not shown) [Compound 5.8.3a, 1,3-Dihydroxypropan-2-yl-2-((1Z,4Z,7Z,10Z)-16-cyanohexadeca-1,4,7,10-tetraen-1-yl)cyclopropane-1-carboxylate]
EC50 (CB1 receptor (rCB1); class symbols): 10 to 200 nM

CCCCC/C=C\[C@H](C)/C=C\C/C=C\Cc1ccccc1CCCC(=O)N[C@H](C)CO [Compound 4.5.3, N—((R)-1-hydroxypropan-2-yl)-4-(2-((S,2Z,5Z,8Z)-7-methyltetradeca-2,5,8-trien-1-yl)phenyl)butanamide]
binding affinity for CB1 receptor compared to endogenous AEA (CB1 receptor): substantially higher binding affinities
Ki (CB1 receptor; [2]): 0.01 to 10 nM
Ki (CB1 receptor; [1]): 0.01 to 10 nM
